Assay results: US5208326A, “8-hydroxy-2H-dibenz(b,f)azepin-2-one dyes” (Miles Inc., priority 1991, dated 1993)

What was measured:
[1] = pKa of the acid/base indicator dye; assay type: physicochemical
β-galactosidase = experiment: Substrate evaluation: hydrolysis by β-galactosidase in solution; assay type: biochemical
[2] = 50 mM phosphate buffer pH 7.4 (containing no magnesium)

SMILES | pKa [1] | substrate for β-galactosidase (in words) (β-galactosidase) | Km (β-galactosidase; [2]) [µM] | rate (Kcat) of hydrolysis to give 2 (β-galactosidase; [2])
O=c1ccc2nc3ccc(O)cc3ccc-2c1 [Compound 1, 8-Hydroxy-2H-dibenz[b,f]azepin-2-one] | 6.34 | – | – | –
O=c1ccc2nc3ccc(O[C@@H]4O[C@H](CO)[C@H](O)[C@H](O)[C@H]4O)cc3ccc-2c1 [Compound 3, 8-(β-D-galactopyranosyloxy)-2H-dibenz[b,f]azepin-2-one] | – | substrate for β-galactosidase | – | –
O=C1C=CC2=Nc3ccc(O)cc3CCC2=C1 [Compound 2, 8-Hydroxy-10,11-dihydro-2H-dibenz[b,f]azepin-2-one] | 6.95 | – | – | –
O=C1C=CC2=Nc3ccc(O[C@@H]4O[C@H](CO)[C@H](O)[C@H](O)[C@H]4O)cc3CCC2=C1 [Compound 4, 8-(β-D-galactopyranosyloxy)-10,11-dihydro-2H-dibenz [b,f]azepin-2-one] | – | substrate for β-galactosidase | 96 | 7.07×10^3 mol. min^-1 /mol. active site
